Data set [1] can be described thus: Plasma concentration vs. time after single intravenous and oral dose (IV and oral clearance). In kind it is in vivo, Sprague-Dawley rats. The settings on record: rats having "normal" gut function; single dose given intravenously and orally (FIG. 3). An excerpt: (§1) Example 1 may be categorized as fluorescent challenge molecule is not substantially absorbed by a healthy gut.

Data set [2] can be described thus: Light absorption and emission maxima of the fluorescent challenge molecule. In kind it is physicochemical.
Source text: as §1
Example 2 may be categorized as fluorescent challenge molecule is not substantially absorbed by a healthy gut as the molecular weight is relatively high (344 g/mol).
(§2) Example 3 may be categorized as fluorescent challenge molecule that is substantially absorbed by a healthy gut as the molecular weight is relatively low (198 g/mol).

Data set [3] is described as follows: Clearance from the body followed by fluorescence signal, with and without ligated kidneys. It counts as in vivo. The settings on record: for clearance pathway from the body: fluorescence signal over time.
Source text: as §2

Each structure is given as a SMILES string.

Experimental findings from patent publication US12048751B2, “Compositions and methods for assessing gut function” (MediBeacon Inc., priority 2013, dated 2024) are described below.

With `Nc1nc(C(=O)N[C@H](CO)C(=O)O)c(N)nc1C(=O)N[C@H](CO)C(=O)O` [Example 1, 3,6-diamino-2,5-bis{N-[(1R)-1-carboxy-2-hydroxyethyl]carbamoyl}pyrazine], in data set [1], the oral bioavailability entry is reported as “very little”. In addition, in data set [2], the light absorption maximum is recorded as 445 nm and the light emission maximum was 560 nm.

In the case of `NC(=O)c1nc(NCC(O)CO)c(C(N)=O)nc1NCC(O)CO` (stereo not shown) [Example 2, 3,6-N,N′-bis(2,3-dihydroxypropyl)-2,5-pyrazinedicarboxamide], in data set [2], the light absorption maximum is listed as 486 nm and the light emission maximum is recorded as 600 nm.

As for `Nc1nc(C(=O)O)c(N)nc1C(=O)O` [Example 3, 3,6-diaminopyrazine-2,5-dicarboxylic Acid], in data set [2], the light absorption maximum is on record as 396 nm. In addition, the light emission maximum in data set [2] is 536 nm. Further, the “clearance pathway from the body” value is listed as “clears from the body by the renal system” in data set [3] and “clears from the body via the renal system” in data set [3] (listed as Example Compound 3). In addition, the “fluorescence signal when the kidneys are ligated” value in data set [3] (kidneys ligated, no excretion pathway) is listed as “stays elevated”.
